Measurements reported in paper PMC10629545, “Identification of a second glycoform of the clinically prevalent O1 antigen from Klebsiella pneumoniae” (Proceedings of the National Academy of Sciences of the …, 2023).

Molecular target: T1, His6-WbbZ (WbbZ pyruvyltransferase) (Klebsiella pneumoniae, UniProt A0A0C4KUT2)
T1 construct: His6-tagged, expressed in E. coli TOP10, Ni-NTA purified
Assay: PAGE of reaction products; MS and NMR
Assay type: biochemical
Settings: pyruvyl donor, 10 mM PEP; acceptor formed by WbbY; pH 7.5, 10 mM MgCl2, 30 °C

T1 sequence (A0A0C4KUT2 entry or part of it): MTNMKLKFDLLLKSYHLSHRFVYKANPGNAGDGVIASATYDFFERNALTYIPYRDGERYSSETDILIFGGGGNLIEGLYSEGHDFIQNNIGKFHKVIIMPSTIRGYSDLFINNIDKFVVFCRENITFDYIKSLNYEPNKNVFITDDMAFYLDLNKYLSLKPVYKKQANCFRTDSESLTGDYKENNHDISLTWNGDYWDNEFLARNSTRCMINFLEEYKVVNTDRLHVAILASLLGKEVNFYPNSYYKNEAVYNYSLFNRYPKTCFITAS

With `C=C(OP(=O)(O)O)C(=O)O` [PEP] the “PAGE of reaction products; MS and NMR” value was “phosphoenolpyruvate (PEP)-dependent reduction of the size of the reaction products”.
